Assay results taken from patent US9636323B2, “Method of treating cancer that overexpresses TopBP1” (Baylor College of Medicine, priority 2014, dated 2017).

Tests used:
[1] = tested on: TopBP1-BRCT7/8 binding to pS1159 peptide; test: pS1159 peptide binding assay (streptavidin Sepharose pulldown); conditions: FIG. 1f
Method: The GST fusion proteins in Escherichia coli strain BL21 were induced by 0.1 mM IPTG (isopropyl-β-D-thiogalactopyranoside) and purified according to the standard protocol. The GST portion on GST-TopBP1-BRCT7/8 was excised by Pre-Scission protease (Pharmacia). Two purified (>98%) biotin conjugated peptides were synthesized from Sigma Genosys. The peptide sequence is derived from the surrounding sequence of TopBP1 S1159: pP, Btn-[…]pSer^1159NLQWPS and nP, Btn-[…]. Purified TopBP1-BRCT7/8 (2 μg) was incubated with compounds in NETN-A buffer (50 mM NaCl, 1 mM EDTA, 20 mM Tris, 0.5% NP-40) at 4° C. for 3 h with constant rotation. Then 2 μg of purified pP or nP peptides were added and rotated for another 3 h at 4° C. The biotin-conjugated peptides were then pulled down with streptavidin-Sepharose (Amersham). The beads were washed six times with NETN-B buffer (100 mM NaCl, 1 mM EDTA, 0.2 mM phenylmethylsulfonyl fluoride) and then subjected to sodium dodecyl sulfate-polyacrylamide gel electrophoresis (SDS-PAGE) and analyzed by Western blotting with anti-TopBP1 antibody (1:1000, BL893, Bethyl Laboratories).

[2] = tested on: TopBP1-BRCT7/8 binding to p53(DBD); test: GST-p53(DBD) pulldown assay; conditions: FIG. 1g
Method: Purified TopBP1-BRCT7/8 (2 μg) was incubated with compounds in NETN-A buffer as above at 4° C. for 3 h with constant rotation. Then purified GST-p53-DBD or GST (2 μg) were added and rotated for another 3 h at 4° C. GST-p53-DBD was then pulled down with glutathione-Sepharose. The beads were washed six times with NETN-B buffer and then subjected to SDS-PAGE analysis.

concentrations at which TopBP1/pS1159 interaction was blocked [1]: submicromolar | effective amount of Calcein that needs to be present ([1]; pS1159 peptide binding): 60 to 300 nM | concentrations at which TopBP1/p53(DBD) interaction was blocked [2]: submicromolar | effective amount of Calcein that needs to be present ([2]; GST-p53(DBD) pulldown): 60 to 300 nM
Compound: O=C(O)CN(CC(=O)O)Cc1cc2c(cc1O)Oc1cc(O)c(CN(CC(=O)O)CC(=O)O)cc1C21OC(=O)c2ccccc21 [Calcein, calcein]
